Measured values taken from paper PMC3674995, “Safety, Pharmacokinetic, and Efficacy Studies of Oral DB868 in a First Stage Vervet Monkey Model of Human African Trypanosomiasis” (PLoS Neglected Tropical Diseases, 2013).
“And” between values parts separate entries of the source, which are not always exact repeats. Identical values can stand only once. “Also recorded” adds a separate entry of the source.

Assays:
[1] = Metabolism of DB868 in vervet monkey liver microsomes; assay type: in vitro ADME; details: 10 µM, 0.5 mg/mL microsomes, 1 mM NADPH, pH 7.4, up to 120 min
Protocol: DB868 metabolism was studied in male vervet monkey liver microsomes (custom-prepared by XenoTech, LLC, Lenexa, KS, USA) by adapting a previously published method. Briefly, incubation mixtures contained 10 µM DB868, 0.5 mg/mL monkey liver microsomes, and 3.3 mM MgCl2 in 100 mM phosphate buffer (pH 7.4). Reactions were initiated by the addition of NADPH (1 mM final concentration). Control incubations were carried out without NADPH, DB868, or liver microsomes. Aliquots (100 µL) of the reaction mixtures were removed at 0, 5, 10, 15, 30, 60 and 120 min and mixed with 100 µL of ice-cold acetonitrile. After centrifugation to pellet precipitated proteins, the supernatants were analyzed by HPLC/UV and fluorescence using the method previously described for pafuramidine (DB289) and furamidine (DB75). Metabolite identification was performed by comparing retention times to those of synthetic standards for M1 (DB1679), M2 (DB840), M3 (DB1712), and DB829. DB868 and its metabolites were quantified using a calibration curve (0.1–10 µM) generated using synthetic standards.

[2] = tested on: T. b. rhodesiense KETRI 2537; test: Efficacy in first stage HAT vervet monkey model; assay type: in vivo; details: for time to clear parasites from the blood: after the 1st drug dose
Protocol: Monkeys that were deemed as treatment failures/relapses or developed severe adverse clinical signs as defined in the protocol (e.g., inability or reluctance to perch, less than ¼ of normal daily feed intake for 2–3 consecutive days) were immediately withdrawn from the study and humanely euthanized for post-mortem examination. These monkeys were euthanized by intravenous administration of 20% (w/v) pentobarbitone sodium solution (150 mg/kg body weight; Euthatal; Rhône-Mérieux, United Kingdom).

[3] = Pharmacokinetics in infected vervet monkeys (first stage HAT); assay type: in vivo, vervet monkey; details: monkey, plasma, po, prodrug in plasma post-LDD, all oral DB868 regimens; infected; 0.04 days = 1 h; read-out: Tmax (majority, 4/6 monkeys) (converted)
[4] = tested on: T. b. rhodesiense STIB900; set-up: method as in PMID 19620327; details: oral administration; cited from earlier work
T. b. brucei GVR35 = tested on: T. b. brucei GVR35; set-up: method as in PMID 19620327; details: oral administration; cited from earlier work
[5] = set-up: method as in earlier work; details: cited from earlier work
[6] = Pharmacokinetics in uninfected vervet monkeys; details: uninfected; for concentration at 24 h / concentration at 4 h: both, monkey, po; for concentration at 24 h / concentration at 4 h / C24 h: plasma; for concentration at 24 h: C24 h; for concentration at 4 h: geometric mean C4 h, n = 4
[7] = Safety (overt toxicity, haematology, clinical chemistry) in uninfected vervet monkeys; details: for peak plasma urea relative to baseline: p<0.05; for highest post-treatment mean ALT: plasma
[8] = oral 3 mg/kg×7 days, monkeys 638, 643
[9] = after final oral dose of DB868 30 mg/kg×10 days, individual monkeys, 30 mg/kg
[10] = oral 10 mg/kg/day×10 days, 1–2 days post-LDD

For `CONC(=N)c1ccc(-c2ccc(-c3ccc(C(=N)NOC)cn3)o2)nc1` [DB868, 2,5-bis[5-(N-methoxyamidino)-2-pyridyl]furan], the metabolites formed [1] was “metabolized in male vervet monkey liver microsomes to M1 (DB1679), M2 (DB840), M3 (DB1712), M4, and the active compound DB829”, the “day of dosing on which parasitologically negative” value ([2]; oral 3 mg/kg/day for 7 days, monkey 638) was 6 day and the “time at which parasitologically negative” value ([2]; oral 3 mg/kg/day for 7 days, monkey 643) was 3 days post-LDD. The “Trypanosomes blood/CSF at EoT” value ([2]; oral 3 mg/kg×7 days from 7 DPI, monkeys 638, 643) was “Neg”, the Final efficacy assesment [2, 8] was “Cured” and the “Provisional efficacy at 100 days post-treatment” value [2, 8] was “Cured”. The “time at which consistently parasitologically negative” value ([2]; oral 10 mg/kg/day for 7 days, monkey 675) was 7 days post-LDD, the “day of treatment on which parasitologically negative” value ([2]; oral 10 mg/kg/day for 7 days, monkey 691) was 6 day and the “Trypanosomes blood/CSF at EoT” value ([2]; oral 10 mg/kg×7 days from 7 DPI, monkeys 675, 691) was “Neg”. For the same compound, the “Provisional efficacy at 100 days post-treatment” value ([2]; oral 10 mg/kg×7 days, monkeys 675, 691) was “Cured”, the “day of drug administration by which trypanosomes were undetectable in blood” value ([2]; oral 20 mg/kg/day for 5 days, all three monkeys) was ≤ 4 days and the “Trypanosomes blood/CSF at EoT” value ([2]; oral 20 mg/kg×5 days from 7 DPI, monkeys 585, 658, 686, Neg = negative, Pos = positive) was “Neg”. The “time to clear parasites from the blood” value ([2]; oral, '30 mg/kg group') was 2 to 5 days, the “time to clearance of trypanosomes from peripheral blood” value ([2]; oral, after the 1st dose, depending on the dose) was 2 to 14 days and the “cure of infected monkeys” value ([2]; oral, all three regimens (3 mg/kg/day×7, 10 mg/kg/day×7, 20 mg/kg/day×5 days), treatment from 7 DPI) was “All infected monkeys were cured”. The “dose required to achieve complete cure” value ([2]; oral, for 7 days, first stage HAT monkey model) was 3 mg/kg, the “time to clear parasites from the blood” value ([2]; oral, lower dose regimen groups (3 and 10 mg/kg)) was 6 to 14 days and the “curative cumulative dose, fold lower than the maximum tolerated dose” value ([2]; oral, 21 mg/kg vs 300 mg/kg cumulative) was 14 fold. The Tmax [3] was 57.6 min, the curative [4] was 100% and the curative (T. b. brucei GVR35) was 100%. For the same compound, the “increase in ALT compared to untreated rats” value ([5]; female Sprague-Dawley rats, oral 25 mg/kg/day for 3 weeks) was “less than 2 fold”, the “effect on KIM-1” value ([5]; oral 12 mg/kg/day×28 days, entire 4-month observation period) was “no effect” and the “AUC0-∞” value [6, 9] was 200 nmol·days/L and 540 nmol·days/L and 260 nmol·days/L and 180 nmol·days/L. The AUClast [6, 9] was 190 nmol·days/L and 530 nmol·days/L and 210 nmol·days/L and 170 nmol·days/L, the “t1/2 (terminal elimination half-life)” value [6, 9] was 0.4 day and 1 day (2×) and 1.3 day and the concentration at 24 h ([6]; 10 mg/kg, 24 h after final oral dose of DB868 10 mg/kg×10 days, individual monkeys, BLQ = below limit of quantitation) was 6 nM. For the same compound, the concentration at 4 h ([6]; 10 mg/kg/day, oral DB868 10 mg/kg/day×10 days) was 89 nM, the concentration at 24 h ([6]; 30 mg/kg, 24 h after final oral dose of DB868 30 mg/kg×10 days, individual monkeys) was 66 nM and the concentration at 4 h ([6]; 30 mg/kg/day, oral DB868 30 mg/kg/day×10 days) was 466 nM. For the same compound, the “time for plasma concentration to decline below the limit of detection” value ([6]; oral DB868 10 mg/kg/day×10 days) was “less than 1 day post-LDD”, the “time for plasma concentration to decline below the limit of detection” value ([6]; oral DB868 30 mg/kg/day×10 days) was 1–2 days post-LDD and the “geometric mean C4 h, 30 mg/kg group relative to 10 mg/kg group” value ([6]; oral DB868×10 days) was 5.2 fold. The C4 h ([6]; plasma concentration at 4 h after final (10th) oral dose of DB868 10 mg/kg×10 days, individual monkeys 643, 659, 675, 677, 10 mg/kg) was 50 nM and 130 nM and 39 nM and 250 nM, the C4 h ([6]; plasma concentration at 4 h after final (10th) oral dose of DB868 30 mg/kg×10 days, individual monkeys 546, 567, 668, 679, 30 mg/kg) was 330 nM and 1600 nM and 280 nM and 320 nM and the C24 h ([6]; 24 h after final oral dose of DB868 10 mg/kg×10 days, individual monkeys, BLQ = below limit of quantitation, 10 mg/kg) was “BLQ”. For the same compound, the C24 h ([6]; 24 h after final oral dose of DB868 30 mg/kg×10 days, individual monkeys, 30 mg/kg) was 38 nM and 47 nM and 35 nM, the “transient increase of plasma urea concentrations” value ([7]; both dose groups, 1–2 days after the last drug dose) was 2–3 fold and the adverse clinical signs ([7]; oral 10 mg/kg/day for 10 days, uninfected, n = 4) was “did not exhibit any adverse clinical signs”. The “BUN equivalent of peak mean urea” value [7, 10] was 35.9 mg/dL, the mean creatinine concentration [7, 10] was 72.3 µmol/L and the “mean creatinine concentration (equivalent)” value [7, 10] was 0.8 mg/dL. The “peak mean urea concentration” value [7, 10] was 12.8 mmol/L, the “peak plasma urea relative to baseline” value [7, 10] was 2.1 fold and the “maximum decline of mean body weight from baseline” value ([7]; oral 10 mg/kg/day×10 days, baseline 3.2 kg±0.5) was 6.2%. The “highest post-treatment mean ALT relative to second baseline sample” value ([7]; oral 10 mg/kg/day×10 days, p = 0.71) was 2.8 fold, the “highest post-treatment mean ALT” value ([7]; oral 10 mg/kg/day×10 days) was 31.3 IU/L and the overt toxicity ([7]; oral 30 mg/kg/day for 10 days (cumulative 300 mg/kg), uninfected, two of four monkeys: excess mucous in stool, transient inappetance) was “mild signs of toxicity; also recorded: No significant overt toxicity”. For the same compound, the “peak plasma urea relative to baseline” value ([7]; oral 30 mg/kg/day×10 days, 1–2 days post-LDD) was 2.7 fold, the “maximum decline of mean body weight from baseline” value ([7]; oral 30 mg/kg/day×10 days, baseline 3.1 kg±0.3) was 6.5% and the “mean white blood cell count, transient increase over baseline post-LDD” value ([7]; oral 30 mg/kg/day×10 days, p = 0.05, returned to baseline after 24 h, judged not drug-related) was 1.5 fold. The “highest post-treatment mean ALT relative to second baseline sample” value ([7]; oral 30 mg/kg/day×10 days, p = 0.37) was 1.3 fold, the “highest post-treatment mean ALT” value ([7]; oral 30 mg/kg/day×10 days) was 20.5 IU/L and the “post-dosing variations of mean plasma creatinine” value ([7]; oral 10 or 30 mg/kg/day×10 days, not statistically significant (p>0.05)) was “minimal”. For the same compound, the “mean AST and total and direct bilirubin levels versus baseline” value ([7]; oral 10 or 30 mg/kg/day×10 days, p>0.05) was “not statistically different from baseline values”, the “gastrointestinal toxicity (stool, faecal occult blood tests)” value ([7]; oral 10 or 30 mg/kg/day×10 days, uninfected) was “no notable gastrointestinal toxicity occurred” and the overall tolerability ([7]; two oral regimens, 10 and 30 mg/kg/day for 10 days, uninfected) was “well tolerated”. The “haematological parameters versus baseline” value ([7]; two treatment groups, 10 and 30 mg/kg/day×10 days, uninfected) was “did not vary significantly from baseline”.
